Source: patent US12304890B2, “R-type pyridyloxycarboxylic acid, salt and ester derivative thereof, and preparation method therefor, and herbicidal composition and application thereof” (Qingdao Kingagroot Chemical Compound Co., Ltd., priority 2018, dated 2025)

Key:
Format in all cases: in vivo
Echinochloa crusgalli = experiment: Post-emergence test experiment, Echinochloa crusgalli; conditions: for Echinochloa crusgalli, activity level (growth inhibition rate): 200 g a.i./ha, 3 weeks, weed resistant to ALS inhibitor and ACCe herbicides; for Activity level (growth inhibition rate), Echinochloa crusgalli: 1000 g a.i./ha, 3 weeks in greenhouse, fresh weight inhibition
Procedure, shortened: (§1)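 Pot-grown plants, sown 2 weeks earlier and at 2-3 leaves, received a foliar spray of compound in acetone/tween-80 with methyl oleate adjuvant. Effect was expressed as fresh weight inhibition rate after three further greenhouse weeks.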

Digitaria sanguinalis = experiment: Post-emergence test experiment, Digitaria sanguinalis; conditions: for Digitaria sanguinalis, activity level (growth inhibition rate): 200 g a.i./ha, 3 weeks, weed resistant to cyhalofop-butyl; for Activity level (growth inhibition rate), Digitaria sanguinalis: 1000 g a.i./ha, 3 weeks in greenhouse, fresh weight inhibition
Procedure, shortened: as §1

[1] = system: Semen Euphorbiae Lathyridis; experiment: Post-emergence test experiment, Semen Euphorbiae Lathyridis; conditions: 200 g a.i./ha, 3 weeks, weed resistant to cyhalofop-butyl
Procedure, shortened: as §1

rice = experiment: Post-emergence test experiment, rice (crop selectivity); conditions: 200 g a.i./ha, 3 weeks
Procedure, shortened: as §1

[2] = system: Monocotyledonous and dicotyledonous weed seeds and main crop seeds; experiment: Post-emergence test experiment, other weeds and crops (Table 4, 1000 g a.i./ha); conditions: 3 weeks in greenhouse, fresh weight inhibition
Procedure, shortened: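 Weed and crop seeds (wheat, corn, rice, soybean, cotton, oilseed, millet, sorghum) sown in soil pots in a greenhouse and sprayed at 2-3 leaf stage, 2 weeks after sowing. Compound in acetone/tween-80 with methyl oleate concentrate (1.5 L/ha) as synergist. Effect recorded as fresh-weight growth inhibition rate.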

rice (japonica rice) = experiment: Transplanted rice safety evaluation; conditions: transplanted 3-leaf japonica rice, 1000 g a.i./ha, 21 days after treatment
Description: In addition, the rice field soil that loaded into the 1/1,000,000 ha pot was leveled to keep water storage at 3-4 cm depth. The 3-leaf stage rice (japonica rice) was transplanted at 3 cm of transplanting depth the next day. The compound of the present invention was treated by the same way after 5 days of transplantation.
(§2) The fertility condition of Monochoria vaginalis 14 days and rice 21 days after the treatment of the compound of the invention with the naked eye.

Monochoria vaginalis = experiment: Weed control effect evaluation in rice field; conditions: paddy pot, 0.5 leaf stage, 1000 g a.i./ha, 14 days; weed resistant to pyrazosulfuron-ethyl and penoxsulam
Description: Rice field soil was loaded into a 1/1,000,000 ha pot. The seeds of Monochoria vaginalis were sowed and gently covered with soil, then left to stand still in greenhouse in the state of 0.5-1 cm of water storage. It was kept at 3-4 cm of water storage thereafter. The weeds were treated by dripping the WP or SC water diluents prepared according to the common preparation method of the compounds of the present invention with pipette homogeneously to achieve specified effective amount when Monochoria vaginalis reached 0.5 leaf stage.
as §2

SMILES | Echinochloa crusgalli, activity level (growth inhibition rate) (Echinochloa crusgalli) | Activity level (growth inhibition rate), Echinochloa crusgalli (Echinochloa crusgalli) | Digitaria sanguinalis, activity level (growth inhibition rate) (Digitaria sanguinalis) | Activity level (growth inhibition rate), Digitaria sanguinalis (Digitaria sanguinalis) | Semen Euphorbiae Lathyridis, activity level (growth inhibition rate) [1] | rice, activity level (growth inhibition rate) (rice) | Activity level (growth inhibition rate), Abutilon theophrasti Medic. [2] | Activity level (growth inhibition rate), Galium aparine [2] | Activity level (growth inhibition rate), Monochoria Vaginalis [2] | rice, safety level 0-5 (rice (japonica rice)) | Monochoria Vaginalis, activity level 0-5 (Monochoria vaginalis)
C[C@@H](Oc1nc(F)c(Cl)c(N)c1Cl)C(=O)SCc1ccccn1 [Compound 2-343] | 5 (Level 5: the growth inhibition rate is greater than 85%) | 5 (Level 5: the growth inhibition rate is greater than 85%) | 5 (Level 5: the growth inhibition rate is greater than 85%) | 5 (Level 5: the growth inhibition rate is greater than 85%) | 5 (Level 5: the growth inhibition rate is greater than 85%) | 0 (Level 0: the growth inhibition rate is less than 5%) | 5 (Level 5: the growth inhibition rate is greater than 85%) | 5 (Level 5: the growth inhibition rate is greater than 85%) | 5 (Level 5: the growth inhibition rate is greater than 85%) | 0 (Level 0: the growth inhibition rate is less than 5%) | 5 (Level 5: the growth inhibition rate is greater than 85%)
C[C@@H](Oc1nc(F)c(Cl)c(N)c1Cl)C(=O)OCc1ccco1 [Compound 2-348] | 5 (Level 5: the growth inhibition rate is greater than 85%) | 5 (Level 5: the growth inhibition rate is greater than 85%) | 5 (Level 5: the growth inhibition rate is greater than 85%) | 5 (Level 5: the growth inhibition rate is greater than 85%) | 5 (Level 5: the growth inhibition rate is greater than 85%) | 0 (Level 0: the growth inhibition rate is less than 5%) | 5 (Level 5: the growth inhibition rate is greater than 85%) | 5 (Level 5: the growth inhibition rate is greater than 85%) | 5 (Level 5: the growth inhibition rate is greater than 85%) | 0 (Level 0: the growth inhibition rate is less than 5%) | 5 (Level 5: the growth inhibition rate is greater than 85%)
